Experimental data published in the CheMixHub ionic liquid set.

Test: xn = mol fraction of the nth substance listed

CCCC[P+](CC)(CC)CC.Cc1ncc([N+](=O)[O-])[n-]1 + COCCOCCOCCOCCOC
100 kPa
Conditions | viscosity [mPa·s]
278.15 K, x2 = 0.048 | 1540
283.15 K, x2 = 0.102 | 631
283.15 K, x2 = 0.401 | 99
283.15 K, x2 = 0.501 | 57
298.15 K, x2 = 0.102 | 208
298.15 K, x2 = 0.201 | 130
308.15 K, x2 = 0.048 | 159
313.15 K, x2 = 0.102 | 90

CCCC[N+](CCCC)(CCCC)CCCC.[Cl-] + NCCCO
viscosity [mPa·s], 101.3 kPa
Conditions | 293.15 K | 298.15 K | 303.15 K | 308.15 K | 313.15 K | 318.15 K | 323.15 K | 328.15 K | 333.15 K
x2 = 0.8 | 101.4 | 77.4 | 57.8 | 44.6 | 36.2 | 28.9 | 23.4 | 19.4 | 16.1
x2 = 0.8571 | 70.7 | 53.9 | 41.7 | 32.8 | 26 | 21.1 | 17.3 | 14.2 | 12
x2 = 0.8889 | 60.2 | 46.1 | 35.7 | 28 | 22.5 | 18.3 | 15 | 12.5 | 10.7

CS(C)=O + CC(=O)[O-].CC[NH2+]CC
Conditions | viscosity [mPa·s]
298.15 K, 101 kPa, x2 = 0 | 2.01

CC[n+]1ccn(C)c1.[Cl-] + O
viscosity [mPa·s], 100 kPa
Conditions | 278.15 K | 283.15 K | 288.15 K | 293.15 K | 298.15 K | 303.15 K | 308.15 K | 313.15 K | 373 K
x1 = 9.063e-05 | 1.528 | 1.312 | 1.141 | 1.004 | 0.892 | 0.799 | 0.72 | 0.653 | –
x1 = 0.0001805 | 1.531 | 1.314 | 1.144 | 1.006 | 0.894 | 0.8 | 0.721 | 0.654 | –
x1 = 0.0003599 | 1.533 | 1.317 | 1.148 | 1.008 | 0.896 | 0.802 | 0.723 | 0.655 | –
x1 = 0.0005394 | 1.538 | 1.321 | 1.15 | 1.011 | 0.898 | 0.804 | 0.724 | 0.656 | –
x1 = 0.0007199 | 1.541 | 1.323 | 1.152 | 1.013 | 0.899 | 0.805 | 0.725 | 0.658 | –
x1 = 0.0008996 | 1.545 | 1.327 | 1.156 | 1.015 | 0.902 | 0.807 | 0.728 | 0.659 | –
x1 = 0.001079 | 1.547 | 1.329 | 1.158 | 1.018 | 0.904 | 0.809 | 0.729 | 0.661 | –
x1 = 0.001351 | 1.554 | 1.335 | 1.163 | 1.023 | 0.908 | 0.813 | 0.732 | 0.664 | –
x1 = 0.001799 | 1.563 | 1.344 | 1.17 | 1.029 | 0.914 | 0.817 | 0.736 | 0.667 | –
x1 = 0.87 | – | – | – | – | – | – | – | – | 23
x1 = 0.9302 | – | – | – | – | – | – | – | – | 24
x1 = 0.9756 | – | – | – | – | – | – | – | – | 32
x1 = 1 | – | – | – | – | – | – | – | – | 36

CC[n+]1ccn(C)c1C.F[B-](F)(F)F + CC(C)=O
viscosity [mPa·s], 101.3 kPa
Conditions | x1 = 0.02954 | x1 = 0.06403 | x1 = 0.1051 | x1 = 0.1544 | x1 = 0.215 | x1 = 0.2913 | x1 = 0.3887 | x1 = 0.5201
293.15 K | 0.42 | 0.615 | 0.797 | 1.19 | 1.82 | 3.37 | 7.01 | 15.8
298.15 K | 0.402 | 0.59 | 0.767 | 1.119 | 1.7 | 3.09 | 6.27 | 13.2
303.15 K | 0.384 | 0.563 | 0.726 | 1.048 | 1.59 | 2.81 | 5.66 | 11.59
308.15 K | 0.368 | 0.54 | 0.687 | 0.986 | 1.48 | 2.57 | 5.13 | 10.2
313.15 K | 0.354 | 0.516 | 0.652 | 0.929 | 1.38 | 2.36 | 4.67 | 9.03
318.15 K | 0.34 | 0.496 | 0.62 | 0.874 | 1.29 | 2.16 | 4.26 | 8.14
323.15 K | 0.327 | 0.478 | 0.588 | 0.825 | 1.22 | 1.96 | 3.91 | 7.34

C[N+]1(CCOCCOCC[N+]2(C)CCCC2)CCCC1.O=S(=O)([N-]S(=O)(=O)C(F)(F)F)C(F)(F)F.O=S(=O)([N-]S(=O)(=O)C(F)(F)F)C(F)(F)F + CC[n+]1ccn(C)c1.O=S(=O)([N-]S(=O)(=O)C(F)(F)F)C(F)(F)F + O=S(=O)([N-]S(=O)(=O)C(F)(F)F)C(F)(F)F.[Li+]
100 kPa, x1 = 0.2689, x2 = 0.5819
Conditions | electrical conductivity [S/m]
298 K | 0.282
303 K | 0.341
313 K | 0.451
323 K | 0.63
333 K | 0.82
343 K | 1.02

CC[n+]1ccn(C)c1.[Cl-] + OCCOCCOCCOCCO
viscosity [mPa·s], 101.3 kPa
Conditions | 298.15 K | 303.15 K | 313.15 K | 323.15 K | 333.15 K
x2 = 0.3333 | 360 | 266 | 168 | 115 | 83
x2 = 0.5 | 138 | 114 | 83.8 | 62.7 | 48.7

CCCCCCCCCCCC[N+](C)(C)Cc1ccccc1.[Cl-] + NCC(=O)O + O
electrical conductivity [S/m], 101 kPa
Conditions | 293.15 K | 298.15 K | 303.15 K | 308.15 K
x2 = 0.0008873, x1 = 0.0002851 | 0.0824 | 0.0924 | 0.103 | 0.116
x2 = 0.0008873, x1 = 0.0003053 | 0.0856 | 0.0961 | 0.107 | 0.12
x2 = 0.0008873, x1 = 0.0003201 | 0.0879 | 0.0988 | 0.11 | 0.124
x2 = 0.0008874, x1 = 0.0001939 | 0.0676 | 0.0753 | 0.0835 | 0.0926
x2 = 0.0008874, x1 = 0.0002197 | 0.072 | 0.0803 | 0.0893 | 0.0992
x2 = 0.0008874, x1 = 0.0002434 | 0.0759 | 0.0848 | 0.0944 | 0.105
x2 = 0.0008874, x1 = 0.0002654 | 0.0793 | 0.0888 | 0.099 | 0.11
x2 = 0.0008875, x1 = 5.836e-05 | 0.0233 | 0.0261 | 0.0289 | 0.0319
x2 = 0.0008875, x1 = 8.059e-05 | 0.0317 | 0.0355 | 0.0393 | 0.0433
x2 = 0.0008875, x1 = 0.0001014 | 0.0394 | 0.0441 | 0.0489 | 0.0538
x2 = 0.0008875, x1 = 0.0001212 | 0.0469 | 0.0524 | 0.0581 | 0.0639
x2 = 0.0008875, x1 = 0.0001444 | 0.0552 | 0.0617 | 0.0682 | 0.0751
x2 = 0.0008875, x1 = 0.0001686 | 0.0624 | 0.0695 | 0.077 | 0.085
x2 = 0.001759, x1 = 5.744e-05 | 0.0233 | 0.026 | 0.0289 | 0.0319
x2 = 0.001759, x1 = 7.9e-05 | 0.0314 | 0.0351 | 0.039 | 0.0429
x2 = 0.001759, x1 = 9.947e-05 | 0.0391 | 0.0437 | 0.0485 | 0.0534
x2 = 0.001759, x1 = 0.0001207 | 0.0469 | 0.0525 | 0.0582 | 0.064
x2 = 0.001759, x1 = 0.0001453 | 0.0558 | 0.0624 | 0.069 | 0.0758
x2 = 0.001759, x1 = 0.0001712 | 0.0628 | 0.0701 | 0.0775 | 0.0856
x2 = 0.001759, x1 = 0.0001971 | 0.0678 | 0.0758 | 0.0841 | 0.0931
x2 = 0.001759, x1 = 0.0002216 | 0.072 | 0.0806 | 0.0896 | 0.0995
x2 = 0.001759, x1 = 0.0002442 | 0.0758 | 0.0849 | 0.0946 | 0.105
x2 = 0.001759, x1 = 0.000265 | 0.079 | 0.0888 | 0.099 | –
x2 = 0.001759, x1 = 0.000284 | 0.0821 | 0.0923 | 0.103 | –
x2 = 0.001759, x1 = 0.0003018 | 0.0849 | 0.0956 | 0.107 | –
x2 = 0.001759, x1 = 0.0003141 | 0.087 | 0.098 | 0.11 | –
